Results on twelve compounds are retold here after patent US20240366770A1, “DEGRADATION OF BRUTON'S TYROSINE KINASE (BTK) BY CONJUGATION OF BTK INHIBITORS WITH E3 LIGASE LIGAND AND METHODS OF USE” (BeiGene Switzerland GmbH, priority 2021, published 2024).

Where two headings read alike, the source gives them in different places. Where only a bound is given, the exact number is not on record here.

One test deals with T1, BTK (Homo sapiens, UniProt Q06187).
T1 construct: High control=Cell group with added DMSO and without compound, indicating microplate readings without BTK degradation; endogenous in cells; host or cells: TMD-8
Kind of test: BTK degradation in TMD-8 cells (HTRF assay). Type of test: cell-based. The following applies: 6 h treatment, IC50 (DC50) of BTK degradation. The procedure, abridged:
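BTK remaining after compound treatment was measured by HTRF (337 nm excitation, 665/620 nm emission) in lysates of TMD-8 cells. Cells were exposed for 6 h to eight 6-fold-spaced concentrations in 0.2% DMSO. DC50 values were obtained from a Hill-equation fit (top, bottom, slope) of % inhibition.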

For a further test, the system named is HEK-293 cells. Kind of test: HEK-293 cytotoxicity detection (CellTiter-Glo). Type of test: cell-based. The following applies: HEK-293 cells, 72 h incubation, CellTiter-Glo luminescence, IC50 of cell proliferation inhibition, read-out: HEK293. The procedure, abridged: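 Four-parameter logistic fitting of percent inhibition versus concentration gives IC50. Luminescent ATP read-out (CellTiter-Glo) after 72 h compound treatment of HEK-293 cells, 8 doses in 4-fold steps from a 5 mM 500× DMSO stock, final DMSO 0.2%.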
(ATP-based viability assays read luminescence as a measure of living cells.)

T1 sequence (Q06187 whole entry): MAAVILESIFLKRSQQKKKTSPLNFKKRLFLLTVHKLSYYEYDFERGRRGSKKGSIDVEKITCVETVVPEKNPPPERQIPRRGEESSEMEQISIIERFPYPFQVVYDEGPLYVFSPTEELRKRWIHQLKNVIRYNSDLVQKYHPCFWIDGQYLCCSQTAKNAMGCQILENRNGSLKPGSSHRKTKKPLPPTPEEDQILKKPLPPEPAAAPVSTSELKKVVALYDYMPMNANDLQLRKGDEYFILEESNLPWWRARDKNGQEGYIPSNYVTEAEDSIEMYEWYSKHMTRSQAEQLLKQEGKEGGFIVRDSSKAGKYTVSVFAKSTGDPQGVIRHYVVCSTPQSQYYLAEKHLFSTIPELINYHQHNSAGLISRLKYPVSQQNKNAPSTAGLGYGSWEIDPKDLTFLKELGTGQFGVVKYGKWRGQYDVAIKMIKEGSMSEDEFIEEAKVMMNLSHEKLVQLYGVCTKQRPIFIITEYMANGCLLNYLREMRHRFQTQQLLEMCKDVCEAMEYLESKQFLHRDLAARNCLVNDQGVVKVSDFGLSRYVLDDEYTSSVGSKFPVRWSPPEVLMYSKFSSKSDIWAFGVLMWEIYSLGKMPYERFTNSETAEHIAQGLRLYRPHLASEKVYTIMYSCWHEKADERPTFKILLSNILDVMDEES

The term DC50 denotes the midpoint of the concentration-degradation curve. In turn, `Cc1cc(-c2ncnc3[nH]c4cc(N5CCC6(CC5)CCN([C@H]5C[C@@H](c7ccc([C@@H]8CCC(=O)NC8=O)cc7)C5)CC6)ccc4c23)ccc1[C@@H](C)NC(=O)c1nc(C(C)(C)C)no1` [Example 111, 3-(tert-butyl)-N—((R)-1-(4-(7-(9-((1R,3s)-3-(4-((S)-2,6-dioxopiperidin-3-yl)phenyl)cyclobutyl)-3,9-diazaspiro[5.5]undecan-3-yl)-9H-pyrimido[4,5-b]indol-4-yl)-2-methylphenyl)ethyl)-1,2,4-oxadiazole-5-carboxamide] showed a DC50 at BTK of 2.89 nM. In addition, in the test on HEK-293 cells (Homo sapiens), the IC50 worked out at 1370 nM.
Turning to `Cc1cc(-c2ncnc3[nH]c4cc(N5CCC6(CC5)CCN(C5CC(c7ccc(C8CCC(=O)NC8=O)cc7)C5)C6)ccc4c23)ccc1[C@@H](C)NC(=O)c1nc(C(C)(C)C)no1` (stereo in doubt) [Example 101, 3-(tert-butyl)-N—((R)-1-(4-(7-(2-(3-(4-((R)-2,6-dioxopiperidin-3-yl)phenyl)cyclobutyl)-2,8-diazaspiro[4.5]decan-8-yl)-9H-pyrimido[4,5-b]indol-4-yl)-2-methylphenyl)ethyl)-1,2,4-oxadiazole-5-carboxamide], the DC50 at BTK came out at 1.52 nM. Moreover, the IC50 in the test with HEK-293 cells (Homo sapiens) is 956 nM.
Turning to `CC(C)(C)c1noc(C(=O)NC(C)(C)C2CCN(c3ncnc4[nH]c5cc(N6CCN(CC7CCN(c8ccc(N9CCC(=O)NC9=O)cc8)CC7)CC6)ccc5c34)CC2)n1` [Example 131, 3-(tert-butyl)-N-(2-(1-(7-(4-((1-(4-(2,4-dioxotetrahydropyrimidin-1(2H)-yl)phenyl)piperidin-4-yl)methyl)piperazin-1-yl)-9H-pyrimido[4,5-b]indol-4-yl)piperidin-4-yl)propan-2-yl)-1,2,4-oxadiazole-5-carboxamide], the DC50 on BTK came to 27.5 nM. Besides, the IC50 with HEK-293 cells (Homo sapiens) is over 10000 nM.
Turning to `C[C@@H](NC(=O)c1nc(C(C)(C)C)no1)C1CCN(c2ncnc3[nH]c4cc(N5CCN(CC6CCN(c7ccc(N8CCC(=O)NC8=O)cc7)CC6)CC5)ccc4c23)CC1` [Example 130, (R)-3-(tert-butyl)-N-(1-(1-(7-(4-((1-(4-(2,4-dioxotetrahydropyrimidin-1(2H)-yl)phenyl)piperidin-4-yl)methyl)piperazin-1-yl)-9H-pyrimido[4,5-b]indol-4-yl)piperidin-4-yl)ethyl)-1,2,4-oxadiazole-5-carboxamide], half-maximal degradation on BTK (DC50) was put at 63.2 nM. Further, the IC50 in the test on HEK-293 cells (Homo sapiens) was over 10000 nM.
For `Cc1c([C@@H](C)NC(=O)c2noc(C(C)(C)C)n2)ccc(-c2ncnc3[nH]c4cc(N5CCN(C6CCN(Cc7ccc8c(c7)n(C7CCC(=O)NC7=O)c(=O)n8C)CC6)CC5)ccc4c23)c1F` (stereo partly drawn) [Example 87, 5-(tert-butyl)-N-((1R)-1-(4-(7-(4-(1-((3-(2,6-dioxopiperidin-3-yl)-1-methyl-2-oxo-2,3-dihydro-1H-benzo[d]imidazol-5-yl)methyl)piperidin-4-yl)piperazin-1-yl)-9H-pyrimido[4,5-b]indol-4-yl)-3-fluoro-2-methylphenyl)ethyl)-1,2,4-oxadiazole-3-carboxamide], the DC50 on BTK is over 2000 nM. In addition, in the test on HEK-293 cells (Homo sapiens), the IC50 was over 10000 nM.
Regarding `Cc1cc(-c2ncnc3[nH]c4cc(C5CCN(CC6CCN(c7ccc(N8CCC(=O)NC8=O)cc7)CC6)CC5)ncc4c23)ccc1[C@@H](C)NC(=O)c1nc(C(C)(C)C)no1` [Example 42, (R)-3-(tert-butyl)-N-(1-(4-(7-(1-((1-(4-(2,4-dioxotetrahydropyrimidin-1(2H)-yl)phenyl)piperidin-4-yl)methyl)piperidin-4-yl)-9H-pyrido[3′,4′:4,5]pyrrolo[2,3-d]pyrimidin-4-yl)-2-methylphenyl)ethyl)-1,2,4-oxadiazole-5-carboxamide], half-maximal degradation on BTK (DC50) was put at 1.29 nM. In addition, the IC50 in the test with HEK-293 cells (Homo sapiens) was found to be 6730 nM.
On BTK, `Cc1cc(-c2ncnc3[nH]c4cc(N5CCC6(CCN(CC7CCN(c8ccc(N9CCC(=O)NC9=O)cc8)CC7)C6)CC5)ccc4c23)ccc1[C@@H](C)NC(=O)c1nc(C(C)(C)C)no1` [Example 100, (R)-3-(tert-butyl)-N-(1-(4-(7-(2-((1-(4-(2,4-dioxotetrahydropyrimidin-1(2H)-yl)phenyl)piperidin-4-yl)methyl)-2,8-diazaspiro[4.5]decan-8-yl)-9H-pyrimido[4,5-b]indol-4-yl)-2-methylphenyl)ethyl)-1,2,4-oxadiazole-5-carboxamide] displayed a half-maximal degradation concentration (DC50) of 1.02 nM. In addition, in the test on HEK-293 cells (Homo sapiens), the IC50 was 3420 nM.
Consider `Cc1cc(-c2ncnc3[nH]c4cc(N5CCC6(CC5)CCN(C5CC(c7ccc(N[C@@H]8CCC(=O)NC8=O)cc7)C5)CC6)ccc4c23)ccc1[C@@H](C)NC(=O)c1nc(C(C)(C)C)no1` (stereo partly drawn) [Example 107, 3-(tert-butyl)-N—((R)-1-(4-(7-(9-((1S,3r)-3-(4-(((S)-2,6-dioxopiperidin-3-yl)amino)phenyl)cyclobutyl)-3,9-diazaspiro[5.5]undecan-3-yl)-9H-pyrimido[4,5-b]indol-4-yl)-2-methylphenyl)ethyl)-1,2,4-oxadiazole-5-carboxamide], for which half-maximal degradation on BTK (DC50) was put at 2.99 nM. In addition, the IC50 in the test on HEK-293 cells was found to be 1030 nM.
Compound `Cc1c([C@@H](C)NC(=O)c2nc(C3(C)CC3)no2)ccc(-c2ncnc3[nH]c4cc(N5CCN(CC6CCN(c7ccc(N8CCC(=O)NC8=O)cc7)CC6)CC5)ccc4c23)c1F` [Example 64, (R)—N-(1-(4-(7-(4-((1-(4-(2,4-dioxotetrahydropyrimidin-1(2H)-yl)phenyl)piperidin-4-yl)methyl)piperazin-1-yl)-9H-pyrimido[4,5-b]indol-4-yl)-3-fluoro-2-methylphenyl)ethyl)-3-(1-methylcyclopropyl)-1,2,4-oxadiazole-5-carboxamide] yielded a DC50 on BTK of 3.02 nM. Besides, the IC50 with HEK-293 cells (Homo sapiens) is over 10000 nM.
At BTK, `CC(C)(C)c1noc(C(=O)NCC2CCN(c3ncnc4[nH]c5cc(N6CCN(CC7CCN(c8ccc(N9CCC(=O)NC9=O)cc8)CC7)CC6)ccc5c34)CC2)n1` [Example 70, 3-(tert-butyl)-N-((1-(7-(4-((1-(4-(2,4-dioxotetrahydropyrimidin-1(2H)-yl)phenyl)piperidin-4-yl)methyl)piperazin-1-yl)-9H-pyrimido[4,5-b]indol-4-yl)piperidin-4-yl)methyl)-1,2,4-oxadiazole-5-carboxamide] gave a DC50 of 140 nM. For the same compound, in the test with HEK-293 cells (Homo sapiens), the IC50 was found to be 1990 nM.
In turn, `Cc1cc(-c2ncnc3[nH]c4nc(C5CCN(CC6CCN(c7ccc(N8CCC(=O)NC8=O)cc7)CC6)CC5)ccc4c23)ccc1[C@@H](C)NC(=O)c1nc(C(C)(C)C)no1` [Example 39, (R)-3-(tert-butyl)-N-(1-(4-(7-(1-((1-(4-(2,4-dioxotetrahydropyrimidin-1(2H)-yl)phenyl)piperidin-4-yl)methyl)piperidin-4-yl)-9H-pyrido[3′,2′:4,5]pyrrolo[2,3-d]pyrimidin-4-yl)-2-methylphenyl)ethyl)-1,2,4-oxadiazole-5-carboxamide] displayed a DC50 on BTK of 0.725 nM. Besides, the IC50 in the test with HEK-293 cells (Homo sapiens) was determined as 4020 nM.
For `Cc1cc(-c2ncnc3[nH]c4cc(N5CCC6(CC5)CCN([C@H]5C[C@H](c7ccc([C@@H]8CCC(=O)NC8=O)cc7)C5)CC6)ccc4c23)ccc1[C@@H](C)NC(=O)c1nc(C(C)(C)C)no1` [Example 110, 3-(tert-butyl)-N—((R)-1-(4-(7-(9-((1S,3r)-3-(4-((S)-2,6-dioxopiperidin-3-yl)phenyl)cyclobutyl)-3,9-diazaspiro[5.5]undecan-3-yl)-9H-pyrimido[4,5-b]indol-4-yl)-2-methylphenyl)ethyl)-1,2,4-oxadiazole-5-carboxamide], in that order: 1.25 nM and 2000 nM.
